Experimental data from patent US10294202B2, “Pyrrolidinones as herbicides” (FMC Corporation, priority 2013, dated 2019).

Key:
[1] = system: pigweed, palmer; assay: Test E preemergence herbicide test; assay type: in vivo, Amaranthus palmeri; parameters: key: 0 = no effect, 100 = complete control
Excerpt: (§1) Seeds of plant species selected from corn (Zea mays), soybean (Glycine max), velvetleaf (Abutilon theophrasti), lambsquarters (Chenopodium album), wild poinsettia (Euphorbia heterophylla), pigweed, palmer (palmer pigweed, Amaranthus palmeri), waterhemp (common waterhemp, Amaranthus rudis), surinam grass (Brachiaria decumbens), crabgrass, large (large crabgrass, Digitaria sanguinalis), crabgrass, Brazil (Brazilian crabgrass, Digitaria horizontalis), panicum, fall (fall panicum, Panicum dichotomiflorum), foxtail, giant (giant foxtail, Setaria faberii), foxtail, green (green foxtail, Setaria viridis), goosegrass (Eleusine indica), johnsongrass (Sorghum halepense), ragweed (common ragweed, Ambrosia elatior), barnyardgrass (Echinochloa crus-galli), sandbur (southern sandbur, Cenchrus echinatus), arrowleaf […] rhombifolia), ryegrass, Italian (Italian ryegrass, Lolium multiflorum), dayflower, VA (Virginia dayflower, Commelina virginica), field bindweed (Convolvulus arvensis), morningglory (Ipomoea coccinea), nightshade (eastern black nightshade, Solanum ptycanthum), kochia (Kochia scoparia), nutsedge, yellow (yellow nutsedge, Cyperus esculentus), cocklebur (common cocklebur, Xanthium strumarium), smartweed (ladysthumb smartweed, Polygonum Persicaria) and beggarticks (hairy beggarticks, Bidens pilosa), were planted into a silt loam soil and treated preemergence with test chemicals formulated in a non-phytotoxic solvent mixture which included a surfactant. Treated plants and controls were maintained in a greenhouse for 21 days, after which time all species were compared to controls and visually evaluated. Plant response ratings, summarized in Table E, are based on a scale of 0 to 100 where 0 is no effect and 100 is complete control. A dash (-) response means no test result.

[2] = system: sandbur; assay: Test E preemergence herbicide test; assay type: in vivo, Cenchrus echinatus; parameters: key: 0 = no effect, 100 = complete control
Excerpt: as §1

[3] = system: arrowleaf sida; assay: Test E preemergence herbicide test; assay type: in vivo, Sida rhombifolia; parameters: key: 0 = no effect, 100 = complete control
Excerpt: as §1

[4] = system: ryegrass, Italian; assay: Test E preemergence herbicide test; assay type: in vivo, Lolium multiflorum; parameters: key: 0 = no effect, 100 = complete control
Excerpt: as §1

[5] = system: nutsedge, yellow; assay: Test E preemergence herbicide test; assay type: in vivo, Cyperus esculentus; parameters: key: 0 = no effect, 100 = complete control
Excerpt: as §1

[6] = system: nightshade; assay: Test C pre-/postemergence herbicide test; assay type: in vivo, Solanum ptycanthum; conditions: Preemergence
Excerpt: (§2) Seeds of plant species selected from blackgrass (Alopecurus myosuroides), ryegrass, Italian (Italian ryegrass, Lolium multiflorum), wheat (winter wheat, Triticum aestivum), galium (catchweed bedstraw, Galium aparine), corn (Zea mays), crabgrass, large (large crabgrass, Digitaria sanguinalis), foxtail, giant (giant foxtail, Setaria faberii), johnsongrass (Sorghum halepense), lambsquarters (Chenopodium album), morningglory (Ipomoea coccinea), nutsedge, yellow (yellow nutsedge, Cyperus esculentus), pigweed (Amaranthus retroflexus), ragweed (common ragweed, Ambrosia elatior), soybean (Glycine max), barnyardgrass (Echinochloa crus-galli), oilseed rape (Brassica napus), waterhemp (common waterhemp, Amaranthus rudis), kochia (Kochia scoparia), oat, wild (wild oat, Avena fatua), surinam grass (Brachiaria decumbens), foxtail, green (green foxtail, Setaria viridis), goosegrass (Eleusine indica), bromegrass, downy (downy bromegrass, Bromus tectorum), nightshade (eastern black nightshade, Solanum ptycanthum), cocklebur (common cocklebur, Xanthium strumarium), cupgrass, woolly (woolly cupgrass, Eriochloa villosa), bermudagrass (Cynodon dactylon), sunflower, (common oilseed sunflower, Helianthus annuus), Russian thistle (Salsola kali) and velvetleaf (Abutilon theophrasti) were planted into a blend of loam soil and sand and treated preemergence with test chemicals formulated in a non-phytotoxic solvent mixture which included a surfactant. At the same time, plants selected from these crop and weed species and also barley (winter barley, Hordeum vulgare), […]), chickweed (common chickweed, Stellaria media), deadnettle (henbit deadnettle, Lamium amplexicaule), and canarygrass (littleseed canarygrass, Phalaris minor) were planted in pots containing Redi-Earth® planting medium (Scotts Company, 14111 Scottslawn Road, Marysville, Ohio 43041) comprising spaghnum peat moss, vermiculite, wetting agent and starter nutrients and treated with postemergence applications of test chemicals formulated in the same manner. Plants ranged in height from 2 to 18 cm (1- to 4-leaf stage) for postemergence treatments. Treated plants and controls were maintained in a greenhouse for 13 to 15 days, after which time all species were compared to controls and visually evaluated. Plant response ratings, summarized in Table C, are based on a scale of 0 to 100 where 0 is no effect and 100 is complete control. A dash (-) response means no test result.

[7] = system: cupgrass, woolly; assay: Test C pre-/postemergence herbicide test; assay type: in vivo, Eriochloa villosa; conditions: Preemergence; for Cupgrass, Woolly plant response rating: 31 g ai/ha
Excerpt: as §2

[8] = system: sunflower; assay: Test C pre-/postemergence herbicide test; assay type: in vivo, Helianthus annuus; conditions: Preemergence
Excerpt: as §2

[9] = 31 g ai/ha, scale 0 to 100, 0 is no effect and 100 is complete control
[10] = 125 g ai/ha, scale 0 to 100 (0 no effect, 100 complete control)

SMILES	Plant response rating, Pigweed, Palmer ([1]; 31 g ai/ha)	Plant response rating, Pigweed, Palmer ([1]; 125 g ai/ha)	Plant response rating, Pigweed, Palmer ([1]; 250 g ai/ha)	Plant response rating, Sandbur ([2]; 31 g ai/ha)	Plant response rating, Sandbur ([2]; 62 g ai/ha)	Plant response rating, Sandbur ([2]; 125 g ai/ha)	Plant response rating, Sandbur ([2]; 250 g ai/ha)	Plant response rating, Arrowleaf Sida ([3]; 31 g ai/ha)	Plant response rating, Arrowleaf Sida ([3]; 62 g ai/ha)	Plant response rating, Arrowleaf Sida ([3]; 125 g ai/ha)	Plant response rating, Arrowleaf Sida ([3]; 250 g ai/ha)	Plant response rating, Ryegrass, Italian ([4]; 31 g ai/ha)	Plant response rating, Ryegrass, Italian ([4]; 62 g ai/ha)	Plant response rating, Ryegrass, Italian ([4]; 125 g ai/ha)	Plant response rating, Ryegrass, Italian ([4]; 250 g ai/ha)	Plant response rating, Nutsedge, Yellow ([5]; 31 g ai/ha)	Plant response rating, Nutsedge, Yellow ([5]; 62 g ai/ha)	Plant response rating, Nutsedge, Yellow ([5]; 125 g ai/ha)	Plant response rating, Nutsedge, Yellow ([5]; 250 g ai/ha)	Plant response rating, Nightshade ([6]; 62 g ai/ha, scale 0 to 100)	further results
O=C1NCC(c2ccc(C(F)(F)F)cc2)C1C(=O)Nc1cccc(F)c1F (stereo not shown) [Compound 80, N-(2,3-difluorophenyl)-2-oxo-4-[4-(trifluoromethyl)phenyl]-3-pyrrolidinecarboxamide]	0	65	90	30	50	65	70	0	0	0	10	0	0	45	60	0	0	0	0		Plant response rating, Pigweed, Palmer ([1]; 16 g ai/ha): 0; Plant response rating, Sandbur ([2]; 16 g ai/ha): 20; Plant response rating, Arrowleaf Sida ([3]; 16 g ai/ha): 0; Plant response rating, Ryegrass, Italian ([4]; 16 g ai/ha): 0; Plant response rating, Nutsedge, Yellow ([5]; 16 g ai/ha): 0
O=C1NCC(c2cccc(OC(F)(F)F)c2)C1C(=O)Nc1ccccc1F (stereo not shown) [Compound 69]																				0	Nightshade plant response rating [6, 9]: 0; Plant response rating, Nightshade [6, 10]: 0; Plant response rating (scale of 0 to 100), Nightshade ([6]; 250 g ai/ha): 0; Cupgrass, Woolly plant response rating ([7]; scale 0 to 100, 0 is no effect and 100 is complete control): 75; Plant response rating, Cupgrass, Woolly ([7]; 62 g ai/ha, scale 0 to 100): 85; Plant response rating, Cupgrass, Woolly [7, 10]: 85; Plant response rating (scale of 0 to 100), Cupgrass, Woolly ([7]; 250 g ai/ha): 90; Sunflower plant response rating [8, 9]: 10; Plant response rating, Sunflower ([8]; 62 g ai/ha, scale 0 to 100): 10; Plant response rating, Sunflower [8, 10]: 10; Plant response rating (scale of 0 to 100), Sunflower ([8]; 250 g ai/ha): 15
O=C1NCCC1C(=O)N(c1ccc(F)c(F)c1)c1ccccc1F (stereo not shown) [Compound 5, N-(3,4-difluorophenyl)-N-(2-fluorophenyl)-2-oxo-3-pyrrolidinecarboxamide]																				45	Plant response rating, Nightshade [6, 10]: 45; Plant response rating, Cupgrass, Woolly ([7]; 62 g ai/ha, scale 0 to 100): 85; Plant response rating, Cupgrass, Woolly [7, 10]: 90; Cupgrass, Woolly plant response rating ([7]; scale 0 to 100 (0 no effect, 100 complete control)): 80; Plant response rating, Cupgrass, Woolly ([7]; 250 g ai/ha, scale 0 to 100 (0 no effect, 100 complete control)): 95; Plant response rating, Sunflower ([8]; 62 g ai/ha, scale 0 to 100): 0; Plant response rating, Sunflower [8, 10]: 0
O=C1NC[C@H](c2cccc(C(F)(F)F)c2)[C@H]1C(=O)Nc1ccccc1F [Compound 204, (3R,4S)—N-(2-fluorophenyl)-2-oxo-4-[3-(trifluoromethyl)phenyl]-3-pyrrolidinecarboxamide]	0	0	0	20	50	75	80	0	0	0	0	0	0	25	30	0	0	0	0		Plant response rating, Pigweed, Palmer ([1]; 62 g ai/ha): 0
